Experimental data taken from patent US8703723B2, “Glycoside compounds and pharmaceutical compositions thereof” (Centrose, LLC, priority 2009, dated 2014).
Where two headings read alike, the source gives them in different places.

Key:
[1] = tested on: SKOV3 (Ovarian) cell line; assay: Cancer cell cytotoxicity assay (Calcein AM / Cell Titer-Glo), SKOV3; assay type: cell-based, human; settings: Ovarian
Description: (§1) Compounds of the invention and comparative compounds were assayed in three cancer cell lines to confirm cytotoxic activity and to set a range of concentrations to use in subsequent assays. All cell lines were maintained in RPMI medium 1640 supplemented with 10% (wt/vol) fetal bovine serum and penicillin-streptomycin (100 units/ml and 100 μg/ml). Cells were routinely checked for microbial or mycoplasma contamination and if necessary replaced. Cells were harvested by trypsinization using 0.25% trypsin and 0.1% EDTA and then counted in a ViCell XR coulter counter in duplicate, before and after dilution for assay plating. Between four to nine different types of human cancer cells were plated at a density of 10,000-15,000 cells per well of each 96-well black tissue culture treated microtiter plate, then were grown for 1 hour at 37° C. with 5% CO2/95% air in a humidified incubator to allow cells to attach before compound addition. Compound stocks (100×) were prepared in 96-well V-bottom polypropylene microtiter plates. Five serial (1:2) dilutions were made with anhydrous DMSO at 100× the final concentration used in the assay. The individual wells in compound-containing […] well plates were diluted 1:10 with complete cell culture medium and the 10× (10 μL) stocks were added to 90 μl of cells in each plate to ensure full mixing of stocks with culture media by using a Biomek FX liquid handler with 96-well head. Doxorubicin was used as the control to monitor the behavior of each cell line. Cells were incubated with the compounds for 3 to 4 days before fluorescence and luminescence reading. Test plates were removed from the incubator and washed once in sterile PBS to remove serum containing calcium esterases. Calcein AM (acetoxymethyl ester) reagent was added and the cells were incubated for 30 min at 37° C. Plates were read for emission by using a fluorescein filter (excitation 485 nm, emission 535 nm). An equal volume (30 μL) of Cell Titer-Glo reagent (Promega Corporation, Inc.) was added and incubated for 10 min at room temperature with gentle agitation to lyse the cells. Each plate was re-read for luminescence to confirm the inhibition observed in the fluorescent […] assay as a measure of cell viability. The cancer cell cytotoxicity assays were run in triplicate using ≧5 different drug concentrations, and the data were analyzed to establish statistical significance and a valid IC50 value for inhibition of cell growth, based on ≧2 log differences in drug effect.
(§2) The cancer cell cytotoxicities (determined substantially according to the method of Example 5) of various compounds of the invention and comparative compounds as determined in four to five different human cancer cell lines are shown in Table 1. The structures of the compounds listed are found in FIGS. 2-4.

A549 (NSCLC) cell line [2] = assay: Cancer cell cytotoxicity assay (Calcein AM / Cell Titer-Glo), A549; assay type: cell-based, human; settings: NSCLC
Description: as §1, §2

[3] = tested on: HT29 (Colorectal) cell line; assay: Cancer cell cytotoxicity assay (Calcein AM / Cell Titer-Glo), HT29; assay type: cell-based, human; settings: Colorectal
Description: as §1, §2

H1299 (NSCLC) cell line = assay: Cancer cell cytotoxicity assay (Calcein AM / Cell Titer-Glo), H1299; assay type: cell-based, human; settings: NSCLC
Description: as §1, §2

[4] = tested on: NCI-H460 (NSCLC) cell line; settings: footnote 2: data from Langenhan et al. 2005; cited from earlier work
[5] = tested on: SKOV3 (Ovarian) cell line; settings: footnote 2: data from Langenhan et al. 2005; cited from earlier work
A549 (NSCLC) cell line [6] = settings: footnote 2: data from Langenhan et al. 2005; cited from earlier work
[7] = tested on: NCI-H460 (NSCLC) cell line; assay: Cancer cell cytotoxicity assay (Calcein AM / Cell Titer-Glo), NCI-H460; assay type: cell-based, human; settings: NSCLC
Description: as §1, §2

[8] = footnote 4: determined at same time as CEN08-177 and -178
[9] = footnote 5: determined at same time as CEN08-193
[10] = footnote 6: determined at same time as CEN08-243 and -244
[11] = footnote 7: determined at same time as CEN08-180
[12] = footnote 3: determined at same time as CEN07-117 and -121

CON(C1CCC2(C)C(CCC3C2CCC2(C)C(C4=CC(=O)OC4)CCC32O)C1)C1OCC(O)C(O)C1O [CEN07-W-102 (5S), reference compound]
IC50 ([1]; assay set not specified): 310 nM
IC50 [1, 8]: 40 nM
IC50 [1, 9]: 26 nM
IC50 [1, 10]: 25 nM
IC50 [1, 11]: 36 nM
IC50 (A549 (NSCLC) cell line [2]; [12]): 40 nM
IC50 (A549 (NSCLC) cell line [2]; [8]): 10 nM
IC50 (A549 (NSCLC) cell line [2]; [9]): 3 nM
IC50 (A549 (NSCLC) cell line [2]; [10]): 17 nM
IC50 (A549 (NSCLC) cell line [2]; [11]): 8 nM
IC50 ([3]; assay set not specified): 20 nM
IC50 [3, 12]: 120 nM
IC50 [3, 9]: 7 nM
IC50 [3, 11]: 33 nM
IC50 (H1299 (NSCLC) cell line; assay set not specified): 9 nM
IC50 (H1299 (NSCLC) cell line; [12]): 110 nM
IC50 (H1299 (NSCLC) cell line; [8]): 20 nM
IC50 (H1299 (NSCLC) cell line; [9]): 6 nM
IC50 (H1299 (NSCLC) cell line; [10]): 20 nM
IC50 [4]: 53 nM
IC50 [5]: 45 nM
IC50 (A549 (NSCLC) cell line [6]): 33 nM
IC50 [7, 12]: 110 nM
IC50 [7, 8]: 10 nM
IC50 [7, 9]: 5 nM
IC50 [7, 10]: 15 nM
IC50 [7, 11]: 24 nM
